Literature values in patent publication US20220331289A1, “Pharmaceutical Composition Comprising an Artemisinin Derivative for Nasal or Pulmonary Delivery” (Cipla Limited, priority 2014, published 2022).

Conditions: oil-based intramuscular injection formulation

- absorption: slowly and erratically absorbed
Structure (SMILES): CO[C@H]1O[C@@H]2O[C@@]3(C)CC[C@H]4[C@H](C)CC[C@@H]([C@H]1C)[C@@]24OO3 [artemether]
